Test results: ChEMBL document CHEMBL5329196, “Development of truncated Battacin antimicrobials featuring novel N-terminal fatty acids with an excellent safety profile” (Bioorg Med Chem Lett, 2023); call rule not given here
Values after ≈ are worked out from the molar mass of the structure shown. Where a SMILES comes first, the peptide text is derived from it.

Tests used:
Staphylococcus aureus = assay: Antibacterial activity against Staphylococcus aureus assessed as inhibition of bacterial growth incubated for 24 hrs by visual inspection analysis; type: functional
[1] = Therapeutic index, ratio of EC50 for induction of hemolytic activity against mouse RBC to MIC for antibacterial activity against Staphylococcus aureus; type: toxicity; conditions: mouse red blood cells (erythrocytes), read-out: TI
[2] = Pro-aggregation of the compound in human MDA-MB-231 cells at 1 mM by fluorescence microscopic analysis; type: physicochemical, cell-based; conditions: mda-mb-231, 1000 µM
[3] = (§1) Induction of hemolysis in mouse RBC assessed as induction of hemoglobin release incubated for 1 hr by absorbance based analysis; type: toxicity, cell-based, Erythrocyte; conditions: mouse, mouse red blood cells (erythrocytes)
[4] = Pro-aggregation of the compound in human NCI-H460 cells at 1 mM by Bright field microscopic analysis; type: physicochemical, cell-based; conditions: nci-h460, 1000 µM
[5] = Selectivity ratio of EC50 for cytotoxicity against human MDA-MB-231 cells to EC50 for cytotoxicity against human NCI-H460 cells; type: functional
[6] = (§2) Cytotoxicity against human MDA-MB-231 cells assessed as reduction in cell viability measured after 24 hrs by quantitative live/dead fluorescence microscopy; type: toxicity, cell-based; conditions: human, MDA-MB-231 cells
[7] = Pro-aggregation of the compound in human MDA-MB-231 cells at 1 mM by Bright field microscopic analysis; type: physicochemical, cell-based; conditions: mda-mb-231, 1000 µM
[8] = Pro-aggregation of the compound in human NCI-H460 cells at 1 mM by fluorescence microscopic analysis; type: physicochemical, cell-based; conditions: nci-h460, 1000 µM
[9] = Induction of hemolysis in mouse RBC assessed as induction of hemoglobin release at ~100 uM incubated for 1 hr by absorbance based analysis; type: toxicity, cell-based, Erythrocyte; conditions: mouse red blood cells (erythrocytes), read-out: Activity
[10] = (§3) Cytotoxicity against human NCI-H460 cells assessed as reduction in cell viability measured after 24 hrs by quantitative live/dead fluorescence microscopy; type: toxicity, cell-based; conditions: human, NCI-H460 cells
[11] = Induction of hemolysis in mouse RBC assessed as induction of hemoglobin release at ~400 uM incubated for 1 hr by absorbance based analysis; type: toxicity, cell-based, Erythrocyte; conditions: mouse red blood cells (erythrocytes), read-out: Activity
Erythrocyte = assay: as §1; type: toxicity, cell-based; conditions: erythrocyte
MDA-MB-231 = assay: as §2; type: toxicity, cell-based; conditions: mda-mb-231
NCI-H460 = assay: as §3; type: toxicity, cell-based; conditions: nci-h460

C=CC(C)C(C)C(=O)N[C@H](CCN)C(=O)N[C@@H](CCN)C(=O)N[C@@H](CC(C)C)C(=O)N[C@H](Cc1ccccc1)C(=O)N[C@@H](CCN)C(N)=O (stereo partly drawn)
MIC (Staphylococcus aureus): 18.2 µM (≈ 12.5 µg/mL)

CCCOc1ccc(/C=C/CCC(=O)N[C@H](CCN)C(=O)N[C@@H](CCN)C(=O)N[C@@H](CC(C)C)C(=O)N[C@H](Cc2ccccc2)C(=O)N[C@@H](CCN)C(N)=O)cc1
selectivity ratio [1]: 135 | Activity [2]: Active | EC50 at 1 h [3]: ~330 µM | Activity [4]: Active | Ratio EC50 [5]: 2 | EC50 at 24 h [6]: 221 µM | MIC (Staphylococcus aureus): 1 µM (≈ 0.794 µg/mL) | Activity [7]: Active | Activity [8]: Active | hemolysis at 1 h, 100 µM [9]: 2.1% | EC50 at 24 h [10]: 90 µM

CC(C)C[C@H](NC(=O)[C@H](CCN)NC(=O)[C@@H](CCN)NC(=O)CC/C=C/c1ccccc1)C(=O)N[C@H](Cc1ccccc1)C(=O)N[C@@H](CCN)C(N)=O
MIC (Staphylococcus aureus): 2.1 µM (≈ 1.55 µg/mL)

COc1ccc(/C=C/CCC(=O)N[C@H](CCN)C(=O)N[C@@H](CCN)C(=O)N[C@@H](CC(C)C)C(=O)N[C@H](Cc2ccccc2)C(=O)N[C@@H](CCN)C(N)=O)cc1
MIC (Staphylococcus aureus): 2 µM (≈ 1.53 µg/mL)

CC(C)C[C@H](NC(=O)[C@H](CCN)NC(=O)[C@@H](CCN)NC(=O)C(C)C(C)/C=C/c1ccccc1)C(=O)N[C@H](Cc1ccccc1)C(=O)N[C@@H](CCN)C(N)=O (stereo partly drawn)
selectivity ratio [1]: > 267 | Activity [2]: Active | EC50 at 1 h [3]: ≥ 400 µM | Activity [4]: Active | hemolysis at 1 h, 400 µM [11]: 3.4% | Ratio EC50 [5]: 2 | EC50 at 24 h [6]: 898 µM | MIC (Staphylococcus aureus): 1 µM (≈ 0.764 µg/mL) | Activity [7]: Active | Activity [8]: Active | EC50 at 24 h [10]: 324 µM

CCc1ccc(/C=C/CCC(=O)N[C@H](CCN)C(=O)N[C@@H](CCN)C(=O)N[C@@H](CC(C)C)C(=O)N[C@H](Cc2ccccc2)C(=O)N[C@@H](CCN)C(N)=O)cc1
MIC (Staphylococcus aureus): 1 µM (≈ 0.764 µg/mL)

CCCCc1ccc(/C=C/CCC(=O)N[C@H](CCN)C(=O)N[C@@H](CCN)C(=O)N[C@@H](CC(C)C)C(=O)N[C@H](Cc2ccccc2)C(=O)N[C@@H](CCN)C(N)=O)cc1
selectivity ratio [1]: 60 | Activity [2]: Active | EC50 at 1 h [3]: ~90 µM | Activity [4]: Active | hemolysis at 1 h, 400 µM [11]: 77% | Ratio EC50 [5]: 2 | EC50 at 24 h [6]: 67 µM | MIC (Staphylococcus aureus): 1 µM (≈ 0.792 µg/mL) | Activity [7]: Active | Activity [8]: Active | hemolysis at 1 h, 100 µM [9]: 56% | EC50 at 24 h [10]: 31 µM

C=CCCC(=O)N[C@H](CCN)C(=O)N[C@@H](CCN)C(=O)N[C@@H](CC(C)C)C(=O)N[C@H](Cc1ccccc1)C(=O)N[C@@H](CCN)C(N)=O
MIC (Staphylococcus aureus): 75.8 µM (≈ 50 µg/mL)

CCC(C)CCC(=O)N[C@H](CCN)C(=O)N[C@@H](CCN)C(=O)N[C@@H](CC(C)C)C(=O)N[C@H](Cc1ccccc1)C(=O)N[C@@H](CCN)C(N)=O (stereo partly drawn) (HELM PEPTIDE1{[CCC(C)CCC(=O)[*:2]].[NCC[C@@H](N[*:1])C(=O)[*:2]].[Dab].L.[dF].[Dab].[am]}$$$$V2.0)
MIC (Staphylococcus aureus): 4.5 µM (≈ 3.1 µg/mL)

CN[C@@H]1[C@H](O[C@H]2[C@H](O[C@H]3[C@H](O)[C@@H](O)[C@H](N=C(N)N)[C@@H](O)[C@@H]3N=C(N)N)O[C@@H](C)[C@]2(O)C=O)O[C@@H](CO)[C@H](O)[C@H]1O [STREPTOMYCIN]
MIC (Staphylococcus aureus): 1.3 µM (≈ 0.756 µg/mL)

POLYMYXIN B
Activity [2]: Not Active | EC50 (Erythrocyte): ≥ 1 mM | Activity [4]: Not Active | EC50 (MDA-MB-231): > 1 mM | Activity [7]: Not Active | Activity [8]: Not Active | EC50 (NCI-H460): 181 µM
